Measurements reported in EPA's ToxValDB 9.5.

Tested on: Rattus norvegicus
Conditions: oral, gavage
[1] = developmental, duration: 14 days, M/F, Crl:CD(SD), generation: F1, F1: Pelvis: Pelvis, Ischium Incompletely Ossified + F1: Pelvis: Pelvis, Pubis Incompletely Ossified + F1: Skull: Interparietal, Incomplete …
[2] = developmental, duration: 14 days, M/F, Crl:CD(SD), generation: F1, F1: Skull: Supraoccipital, Incomplete Ossification
[3] = developmental, duration: 14 days, M/F, Sprague-Dawley, generation: F1, F1: Developmental: Pelvic Girdle: Ischium, Incomplete Ossification + F1: Developmental: Pelvic Girdle: Pubis, Incomplete Ossification + F1: …
[4] = developmental, duration: 14 days, M/F, Sprague-Dawley, generation: F1, F1: Developmental: Pelvis: Pelvis, Ischium Incompletely Ossified + F1: Developmental: Pelvis: Pelvis, Pubis Incompletely Ossified + F1: …
[5] = developmental, duration: 14 days, M/F, Sprague-Dawley, generation: F1, F1: Pelvic Girdle: Ischium, Incomplete Ossification + F1: Pelvic Girdle: Pubis, Incomplete Ossification + F1: Rib: Rib, Thick + F1: Rib: Rib…
[6] = developmental, M/F, Sprague-Dawley, generation: F1, F1: Developmental: Whole Body: Lactation Index + F1: Developmental: Whole Body: Live Pups Born + F1: Developmental: Whole Body: No. of Pups …
[7] = reproduction developmental, duration: 14 days, F, Crl:CD(SD), generation: P0, P0: Developmental: Uterus: Implantation + P0: General Toxicity: Whole Body: Necropsy Appeared Normal + P0: Reproductive: Ovary: Corpora …
[8] = reproduction developmental, duration: 14 days, F, Crl:CD(SD), generation: P0, P0: Developmental: Uterus: Implantation + P0: Reproductive: Whole Body: Length of Gestation
[9] = reproduction developmental, duration: 14 days, F, Crl:CD(SD), generation: P0, P0: Whole Body: Clinical Observations + P0: Whole Body: Maternal Body Weight + P0: Whole Body: Maternal Body Weight Change + P0: Whole Body…
[10] = reproduction developmental, duration: 14 days, F, Crl:CD(SD), generation: P0, P0: Whole Body: Maternal Body Weight Change, Corrected
[11] = reproduction developmental, duration: 14 days, F, Sprague-Dawley, generation: P0, P0: Developmental: Uterus: Implantation + P0: Developmental: Uterus: Resorptions, Early + P0: Developmental: Uterus: Resorptions, Late + P0…
[12] = reproduction developmental, duration: 14 days, F, Sprague-Dawley, generation: P0, P0: Whole Body: Maternal Body Weight + P0: Whole Body: Maternal Body Weight Change + P0: Whole Body: Maternal Body Weight, Corrected
[13] = reproduction developmental, duration: 14 days, M/F, Crl:CD(SD), generation: F1, F1: Whole Body: Pup Weight + F1: Whole Body: Viability Index
[14] = reproduction developmental, duration: 70 days, F, Crl:CD(SD), generation: P0, P0: Uterus: Uterus (With Cervix) Weight, Absolute + P0: Whole Body: Clinical Observations + P0: Whole Body: Maternal Food Consumption, …
[15] = reproduction developmental, duration: 70 days, F, Crl:CD(SD), generation: P0, P0: Uterus: Uterus (With Cervix) Weight, Relative + P0: Whole Body: Maternal Body Weight Change + P0: Whole Body: Mortality + P0: Whole Body…
[16] = reproduction developmental, duration: 70 days, M/F, Crl:CD(SD), generation: F1, F1: Whole Body: Clinical Observations + F1: Whole Body: Lactation Index + F1: Whole Body: Pup Mortality + F1: Whole Body: Pup Weight …
[17] = reproduction developmental, duration: 70 days, M/F, Crl:CD(SD), generation: F1, F1: Whole Body: Pup Mortality + F1: Whole Body: Pup Weight Relative to Litter
[18] = reproduction developmental, duration: 70 days, M, Crl:CD(SD), generation: P0, P0: Whole Body: Clinical Observations + P0: Whole Body: Mortality

- LEL [1]: 250 mg/kg-day
- NEL [1]: 125 mg/kg-day
- NEL (developmental, duration: 14 days, M/F, Crl:CD(SD), generation: F1, F1: Skull: Frontal, Incomplete Ossification + F1: Skull: Zygomatic Arch, Incomplete Ossification + F1: Uterus: Fetuses, Dead + F1: Uterus: …): 250 mg/kg-day
- LEL [2]: 125 mg/kg-day
- NEL [2]: 25 mg/kg-day
- LEL [5]: 250 mg/kg-day
- NEL [5]: 125 mg/kg-day
- NEL (reproduction developmental, duration: 14 days, F, Crl:CD(SD), generation: P0, P0: Ovary: Corpora Lutea + P0: Uterus: Implantation + P0: Uterus: Resorptions, Early + P0: Uterus: Resorptions, Late + P0: Uterus: …): 250 mg/kg-day
- NEL (reproduction developmental, duration: 14 days, F, Sprague-Dawley, generation: P0, P0: Macroscopic Observations + P0: Ovary: Corpora Lutea + P0: Uterus: Implantation + P0: Uterus: Resorptions, Early + P0: Uterus: …): 250 mg/kg-day
- NEL (reproduction developmental, duration: 14 days, M/F, Crl:CD(SD), generation: F1, F1: Whole Body: Nursing Behavior + F1: Whole Body: Skeletal Malformation): 225 mg/kg-day
- NEL (reproduction developmental, duration: 70 days, F, Crl:CD(SD), generation: P0, P0: Lung: Lung Histopathology + P0: Mammary Gland: Mammary Gland Histopathology + P0: Ovaries: Ovary Histopathology + P0: Ovary: Ovary …): 250 mg/kg-day
- LEL [14]: 125 mg/kg-day
- NEL [14]: 25 mg/kg-day
- NEL (reproduction developmental, duration: 70 days, M, Crl:CD(SD), generation: P0, P0: Epididymides: Epididymides Histopathology + P0: Epididymis: Epididymis Weight, Left, Absolute + P0: Epididymis: Epididymis Weight, Left…): 250 mg/kg-day
SMILES: OCCC(F)(F)C(F)(F)C(F)(F)C(F)(F)C(F)(F)C(F)(F)F [2-(Perfluorohexyl)ethanol]
- NOAEL (developmental, duration: 14 days, M/F, Crl:CD(SD), generation: F1, F1: Developmental: Bone: Skeletal Malformation + F1: Developmental: Whole Body: Nursing Behavior + F1: Developmental: Whole Body: Pup Weight…): 75 mg/kg-day
- LOAEL [3]: 125 mg/kg-day
- NOAEL [3]: 25 mg/kg-day
- LOAEL [4]: 125 mg/kg-day
- NOAEL [4]: 25 mg/kg-day
- LOAEL [6]: 125 mg/kg-day
- NOAEL [6]: 25 mg/kg-day
- LOAEL [7]: 225 mg/kg-day
- NOAEL [7]: 75 mg/kg-day
- LOAEL [8]: 225 mg/kg-day
- NOAEL [8]: 75 mg/kg-day
- NEL (reproduction developmental, duration: 14 days, F, Crl:CD(SD), generation: P0, P0: Ovary: Corpora Lutea + P0: Uterus: Implantation + P0: Whole Body: Length of Gestation + P0: Whole Body: Necropsy Appeared Normal + P0: …): 225 mg/kg-day
- NOAEL (reproduction developmental, duration: 14 days, F, Crl:CD(SD), generation: P0, P0: Reproductive: Ovary: Corpora Lutea + P0: Reproductive: Whole Body: Reproductive Performance): 225 mg/kg-day
- LEL [9]: 250 mg/kg-day
- NEL [9]: 125 mg/kg-day
- LEL [10]: 125 mg/kg-day
- NEL [10]: 25 mg/kg-day
- LOAEL [11]: 125 mg/kg-day
- NOAEL [11]: 25 mg/kg-day
- NOAEL (reproduction developmental, duration: 14 days, F, Sprague-Dawley, generation: P0, P0: Reproductive: Ovary: Corpora Lutea + P0: Reproductive: Uterus: Uterine Weight, Gravid): 250 mg/kg-day
- LEL [12]: 250 mg/kg-day
- NEL [12]: 125 mg/kg-day
- LEL [13]: 225 mg/kg-day
- NEL [13]: 75 mg/kg-day
- NEL (reproduction developmental, duration: 34 days, M, Crl:CD(SD), generation: P0, P0: Central Nervous System: Latency to mount + P0: Whole Body: Necropsy Appeared Normal): 225 mg/kg-day
- LEL [15]: 250 mg/kg-day
- NEL [15]: 125 mg/kg-day
- LEL [16]: 250 mg/kg-day
- NEL [16]: 125 mg/kg-day
- NEL (reproduction developmental, duration: 70 days, M/F, Crl:CD(SD), generation: F1, F1: Whole Body: Live Pups Born + F1: Whole Body: Mean Pups Delivered + F1: Whole Body: Pup Mortality): 250 mg/kg-day
- LEL [17]: 125 mg/kg-day
- NEL [17]: 25 mg/kg-day
- LEL [18]: 125 mg/kg-day
- NEL [18]: 25 mg/kg-day
